The text below walks through data of patent publication US20260078130A1, “NAMPT MODULATORS, PREPARATIONS, AND USES THEREOF” (SIRONAX LTD., priority 2022, published 2026).

Assay [1] addresses T1, human enzyme NAMPT (full length) (Homo sapiens, UniProt P43490).
T1 construct: human enzyme NAMPT (full length)
As to the kind of experiment: NMN fluorescence biochemical assay (stimulation of NMN synthesis by NAMPT). Particulars: for EC50: concentration giving half-maximal activation, read-out: Enzymatic EC50; for Enzymatic Emax: fold change of maximal activation compared to DMSO. The essentials: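 Full-length human NAMPT (100 nM) was preincubated 15 min at 37 °C with compound in 50 mM Tris-HCl pH 7.5, 10 mM MgCl2, 2 mM DTT, then reacted 1 h at 37 °C with 50 μM NAM, 100 μM PRPP, 4 mM ATP (stated solution concentrations). NMN was derivatised with acetophenone/KOH then formic acid and read at Ex/Em 382/445 nm; EC50 and Emax (fold over DMSO) reported.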

Assay [2] deals with endogenous NAMPT in U2OS cells. As to the kind of experiment: Cellular NAD+ modulation assay (NAD/NADH-Glo, U2OS cells). The assay is classed as cell-based. To be noted: Homo sapiens; for maximal fold induction: read-out: Cellular Emax. The essentials: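 NAD/NADH-Glo luminescence quantified NAD+ after acid treatment (60 °C, 15 min) and neutralization of DTAB lysates. Beforehand, U2OS cells seeded 16 h earlier received compound concentration series for 24 h at 37 °C. Values given as half-maximal activation concentration (EC50) and maximal fold change versus DMSO (Emax).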

[3] abbreviates: NMN fluorescence assay, purified human NAMPT 100 nM.
Where [4] appears, read: 24 hours incubation, cellular NAD+.
The mark [5] stands for this setting: NMN synthesis by purified human NAMPT (100 nM).
The mark [6] stands for this setting: 24 hours incubation with compound.

Where two headings read alike, the source gives them in different places. Some results are limits rather than exact numbers.

T1 sequence (P43490 whole entry): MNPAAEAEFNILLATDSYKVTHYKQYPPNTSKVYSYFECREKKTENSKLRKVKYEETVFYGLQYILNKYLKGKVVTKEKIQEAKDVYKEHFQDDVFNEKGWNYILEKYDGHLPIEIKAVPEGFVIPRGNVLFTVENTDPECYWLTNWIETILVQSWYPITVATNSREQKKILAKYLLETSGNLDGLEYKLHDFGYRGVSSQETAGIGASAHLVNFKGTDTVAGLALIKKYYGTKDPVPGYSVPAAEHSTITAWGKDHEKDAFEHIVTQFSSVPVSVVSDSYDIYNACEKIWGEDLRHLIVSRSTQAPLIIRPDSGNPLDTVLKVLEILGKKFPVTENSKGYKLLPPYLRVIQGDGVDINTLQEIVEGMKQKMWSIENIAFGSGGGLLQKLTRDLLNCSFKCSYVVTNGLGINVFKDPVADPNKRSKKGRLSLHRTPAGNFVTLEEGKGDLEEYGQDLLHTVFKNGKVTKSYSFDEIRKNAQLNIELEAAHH

One may read the EC50 as the concentration needed to bring the measured effect to its halfway point. Consider `Cn1ncc(Cl)c1C[C@H]1c2ccccc2C(=O)N1C[C@H]1C[C@]2(CNC(=O)O2)C1` [Compound 406, (2s,4R)-2-(((S)-1-((4-chloro-1-methyl-1H-pyrazol-5-yl)methyl)-3-oxoisoindolin-2-yl)methyl)-5-oxa-7-azaspiro[3.4]octan-6-one], for which, in assay [1] (setting [3]), the concentration for a half-maximal effect (EC50) is less than 500 nM. In assay [1], the “Enzymatic Emax” value is reported as “B (3≥B>2)”. In assay [2] (setting [4]), the half-maximal effective concentration (EC50) is less than 500 nM and the maximal fold induction is more than 1.5.
For `O=C1c2ccc(Nc3ccccc3)cc2C(=O)N1Cc1ccc(O)cc1` [Compound 15, 2-(4-hydroxybenzyl)-5-(phenylamino)isoindoline-1,3-dione], the EC50 in assay [1] (setting [5]) lay within 500 to 5000 nM. Moreover, the “Enzymatic Emax” value in assay [1] was “B (3≥B>2)”. Also, in assay [2] (setting [6]), the EC50 was less than 500 nM and the maximal fold induction was not above 1.2.
`Cn1ncc(Cl)c1CC1c2cc(CN3CC4(COC4)C3)ccc2C(=O)N1CC1CC2(CNC(=O)O2)C1` (centres unmarked) [Compound 512, 2-((5-((2-oxa-6-azaspiro[3.3]heptan-6-yl)methyl)-3-((4-chloro-1-methyl-1H-pyrazol-5-yl)methyl)-1-oxoisoindolin-2-yl)methyl)-5-oxa-7-azaspiro[3.4]octan-6-one]: the 50% effective concentration (EC50) in assay [1] (setting [3]) and in assay [2] (setting [4]) was 500 to 5000 nM each time. Besides, in assay [1], the “Enzymatic Emax” value was “B (3≥B>2)”. Moreover, in assay [2] (setting [4]), the maximal fold induction was more than 1.5.
For `Cn1ncc(Cl)c1CC1c2cc(Cl)cc(F)c2C2(CC2)N1CC1CC2(CNC(=O)O2)C1` (centres unmarked) [Compound 580, 2-((5′-chloro-3′-((4-chloro-1-methyl-1H-pyrazol-5-yl)methyl)-7′-fluorospiro[cyclopropane-1,1′-isoindolin]-2′-yl)methyl)-5-oxa-7-azaspiro[3.4]octan-6-one], in assay [1] (setting [3]), the EC50 lay in the range of 500 to 5000 nM. The “Enzymatic Emax” value in assay [1] is recorded as “A (A>3)”. Moreover, in assay [2] (setting [4]), the EC50 fell in the range of 500 to 5000 nM and the maximal fold induction was in the range of 1.2 to 1.5.
As to `O=C1c2ccc(Br)cc2C(=O)N1Cc1ccc(O)cc1` [Compound 16, 5-bromo-2-(4-hydroxybenzyl)isoindoline-1,3-dione], in assay [1] (setting [5]), the EC50 is not below 5000 nM. The “Enzymatic Emax” value in assay [1] was “A (A>3)”. Besides, in assay [2] (setting [6]), the 50% effective concentration (EC50) lay in the range of 500 to 5000 nM and the maximal fold induction is not above 1.2.
The like results for `O=C1c2cccc(Br)c2CN1Cc1ccc(O)cc1` [Compound 21, 4-bromo-2-(4-hydroxybenzyl) isoindolin-1-one] were, in that order, 500 to 5000 nM, “B (3≥B>2)”, 5000 to 50000 nM and 1.2 to 1.5.
As to `Cn1ncc(Cl)c1CC1c2ccccc2C(=O)N1CC#Cc1c[nH]nc1Cl` (centres unmarked) [Compound 477, 3-((4-chloro-1-methyl-1H-pyrazol-5-yl)methyl)-2-(3-(3-chloro-1H-pyrazol-4-yl)prop-2-yn-1-yl)isoindolin-1-one], the concentration for a half-maximal effect (EC50) in assay [1] (setting [3]) and in assay [2] (setting [4]) was less than 500 nM in each case. Besides, in assay [1], the “Enzymatic Emax” value is recorded as “B (3≥B>2)”. Moreover, the maximal fold induction in assay [2] (setting [4]) is more than 1.5.
Take `Cn1ncc(Cl)c1CC1c2cc(F)ccc2C(=O)N1Cc1ccc2[nH]nnc2c1` (centres unmarked) [Compound 344, 2-((1H-benzo[d][1,2,3]triazol-5-yl)methyl)-3-((4-chloro-1-methyl-1H-pyrazol-5-yl)methyl)-5-fluoroisoindolin-1-one]: the half-maximal effective concentration (EC50) in assay [1] (setting [3]) was 500 to 5000 nM; in assay [2] (setting [4]), less than 500 nM. Also, the “Enzymatic Emax” value in assay [1] is “A (A>3)”. Moreover, the maximal fold induction in assay [2] (setting [4]) is more than 1.5.
`Cn1ncc(Cl)c1CC1c2ccccc2C(C)(C)N1Cc1ccc2[nH]c(=O)oc2c1` (centres unmarked) [Compound 613, 6-((3-((4-chloro-1-methyl-1H-pyrazol-5-yl)methyl)-1,1-dimethylisoindolin-2-yl)methyl)benzo[d]oxazol-2(3H)-one]: the EC50 is less than 500 nM in assay [1] (setting [3]) and 500 to 5000 nM in assay [2] (setting [4]). Further, the “Enzymatic Emax” value in assay [1] is reported as “A (A>3)”. Also, the maximal fold induction in assay [2] (setting [4]) fell in the range of 1.2 to 1.5.
On to `COc1ccc(CN2C(=O)c3ccccc3C2Cc2c(C#N)ccnc2C#N)cn1` (centres unmarked) [Compound 598, 3-((2-((6-methoxypyridin-3-yl)methyl)-3-oxoisoindolin-1-yl)methyl)pyridine-2,4-dicarbonitrile], for which the concentration giving a half-maximal response (EC50) in assay [1] (setting [3]) fell in the range of 500 to 5000 nM. Moreover, in assay [1], the “Enzymatic Emax” value was “B (3≥B>2)”. Besides, in assay [2] (setting [4]), the concentration for a half-maximal effect (EC50) fell in the range of 500 to 5000 nM and the maximal fold induction was more than 1.5.
On to `Cc1nc(O)sc1CN1C(=O)c2ccccc2C1Cc1c(Cl)cnn1C` (centres unmarked) [Compound 635, 3-((4-chloro-1-methyl-1H-pyrazol-5-yl)methyl)-2-((2-hydroxy-4-methylthiazol-5-yl)methyl)isoindolin-1-one], for which, in assay [1] (setting [3]), the 50% effective concentration (EC50) was 500 to 5000 nM. Besides, the “Enzymatic Emax” value in assay [1] was “B (3≥B>2)”. For the same compound, in assay [2] (setting [4]), the EC50 was 500 to 5000 nM and the maximal fold induction is more than 1.5.
As to `N#Cc1cccnc1CC1c2ccccc2C(=O)N1Cc1ccc2[nH]c(=O)oc2c1` (centres unmarked) [Compound 257, 2-((3-oxo-2-((2-oxo-2,3-dihydrobenzo[d]oxazol-6-yl)methyl)isoindolin-1-yl)methyl) nicotinonitrile], the half-maximal effective concentration (EC50) in assay [1] (setting [5]) was 500 to 5000 nM. Moreover, the “Enzymatic Emax” value in assay [1] is on record as “A (A>3)”. In assay [2] (setting [6]), the EC50 was less than 500 nM and the maximal fold induction is more than 1.5.
For the compound `Cc1ccnc(C(C)(C)O)c1CC1c2ccccc2C(=O)N1Cc1ccc2[nH]nnc2c1` (centres unmarked) [Compound 375, 2-((1H-benzo[d][1,2,3]triazol-5-yl)methyl)-3-((2-(2-hydroxypropan-2-yl)-4-methylpyridin-3-yl)methyl)isoindolin-1-one], in assay [1] (setting [3]), the EC50 is less than 500 nM. Moreover, the “Enzymatic Emax” value in assay [1] was “A (A>3)”. In assay [2] (setting [4]), the EC50 is less than 500 nM and the maximal fold induction was more than 1.5.
With `[2H]C1([2H])NC(=O)OC12CC(CN1C(=O)c3ccccc3C1Cc1c(Cl)cnn1C)C2` (centres unmarked) [Compound 535, 2-((1-((4-chloro-1-methyl-1H-pyrazol-5-yl)methyl)-3-oxoisoindolin-2-yl)methyl)-5-oxa-7-azaspiro[3.4]octan-6-one-8,8-d2], the EC50 in assay [1] (setting [3]) lay within 500 to 5000 nM. Moreover, the “Enzymatic Emax” value in assay [1] is listed as “A (A>3)”. Besides, in assay [2] (setting [4]), the EC50 was less than 500 nM and the maximal fold induction is more than 1.5.
Turning to `CC1c2cc(NC3CC4(COC4)C3)ccc2C(=O)N1Cc1ccc2[nH]c(=O)oc2c1` (centres unmarked) [Compound 149, 6-((5-((2-oxaspiro[3.3]heptan-6-yl)amino)-3-methyl-1-oxoisoindolin-2-yl)methyl)benzo[d]oxazol-2(3H)-one], the EC50 in assay [1] (setting [5]) and in assay [2] (setting [6]) was 500 to 5000 nM throughout. In addition, in assay [1], the “Enzymatic Emax” value was “B (3≥B>2)”. Also, in assay [2] (setting [6]), the maximal fold induction is more than 1.5.
For `COc1ccc(CN2C(=O)c3ccccc3C2Cc2c(C)ccnc2C#N)cn1` (centres unmarked) [Compound 588, 3-((2-((6-methoxypyridin-3-yl)methyl)-3-oxoisoindolin-1-yl)methyl)-4-methylpicolinonitrile], the concentration giving a half-maximal response (EC50) in assay [1] (setting [3]) was not below 5000 nM; in assay [2] (setting [4]), 500 to 5000 nM. Moreover, in assay [1], the “Enzymatic Emax” value was “B (3≥B>2)”. Further, the maximal fold induction in assay [2] (setting [4]) is more than 1.5.
As to `COC(=O)Nc1ccc(CN2Cc3ccccc3C2=O)cc1` [Compound 294, methyl (4-((1-oxoisoindolin-2-yl)methyl)phenyl)carbamate], the EC50 in assay [1] (setting [5]) was not below 5000 nM. Further, the “Enzymatic Emax” value in assay [1] is given as “C (2≥C)”. Moreover, in assay [2] (setting [6]), the EC50 lay in the range of 5000 to 50000 nM and the maximal fold induction is more than 1.5.
